Experimental data taken from patent publication EP1541138A1, “Novel use of peptide compounds for treating status epilepticus or related conditions” (SCHWARZ PHARMA AG, priority 2003, dated 2005).

Tests used:
[1] = SSSE after brief electrical stimulation of the perforant path (EEG monitoring for 24 hrs); assay type: in vivo, male Wistar rats; details: for cumulative seizure duration over the 24h period / time to the last seizure: Experiment 1a: 60 minutes stimulation, i.v. 10 min after end of perforant path stimulation, SPM 927 50 mg/kg, PHT 50 mg/kg, DZP 10 mg/kg, compared to control animals (Fig. 1); for time after injection within which seizures stopped: 50 mg/kg i.v. (fosphenytoin: phenytoin equivalent) 10 min after end of stimulation (Fig. 2A); for Spike frequency (number of spikes/10 min): 50 mg/kg i.v., vs control animals (Fig. 2B)
Procedure: (§1) Animals: The experiments were performed on male Wistar rats, 280-300g (Simonsen Labs, CA). Animals were kept at a constant room temperature with 12 hours artificial dark-light cycle with free access to standard diet and tap water.
Surgery: Under ketamine (60 mg/kg)/xylazine (15 mg/kg) anesthesia, animals were implanted with a bipolar stimulating electrode into the angular bundle of the perforant path (4.5 mm to left lambda, 1 mm anterior to lambdoid fissure) and a bipolar recording electrode into the granule cell layer of the ipsilateral dentate gyrus (3.5 mm anterior to lambda, 2.2 mm left to saggital fissure). Depth of both electrodes was optimized by monitoring the amplitude and waveform of the population spike evoked from the dentate gyrus by stimuli delivered through the perforant path (single square wave monophasic stimuli, 20 V, 0.1 ms delivered every 10 s).
Induction of self-sustaining status epilepticus (SSSE): Seven days after surgery, animals were connected to a Cardionics 16 channel preamplifier, which was connected to the IBM computer. After 5 minutes of baseline EEG recording, animals were stimulated in the awake state for 60 minutes (Experiment 1 a) or 30 minutes (Experiments 1b and 1 c) with 10 s 20 Hz trains (1 ms square wave, 20 V) delivered every minute, together with 2 Hz continuous stimulation with the same parameters.
EEG monitoring and analysis: EEG from the dentate gyrus was monitored and recorded by means of commercial software (Monitor 8.1 from Stellate Systems). The software was configured for automatic detection and saving of spikes and seizures. Monitoring was performed for 24 hrs. EEG was analyzed off line by means of the same software. Spike distribution was presented as number of spikes per 10 min epoch, and the cumulated duration of seizures for 24 hrs of monitoring were calculated. Statistical analysis was performed by means of T-test. A p value less than 0.05 was considered statistically significant.
Drug administration: SPM 927 (50 mg/kg, 5 animals), phenytoin (PHT) (50 mg/kg), Fosphenytoin (F-PTH Porte-Davis, 50 mg/kg of phenytoin equivalent, 5 animals), diazepam (DZP) (10mg/kg) or vehicle (VEH, 10% DMSO, 6 animals) were given i.v. 10 min after the end of perforant path stimulation in a volume of 1 ml/kg.

[2] = Hippocampal damage following SSSE (count of damaged neurons in brain sections, light microscopy); assay type: in vivo, male Wistar rats
Procedure: as §1
Surgery: Under ketamine (60 mg/kg)/xylazine (15 mg/kg) anesthesia, animals were implanted with a bipolar stimulating electrode into the angular bundle of the perforant path (4.5 mm to left lambda, 1 mm anterior to lambdoid fissure) and a bipolar recording electrode into the granule cell layer of the ipsilateral dentate gyrus (3.5 mm anterior to lambda, 2.2 mm left to saggital fissure). […]
Selection of sections for counting: Selection of sections for counting was controlled by the stereotaxic atlas for rats (Paxinos and Watson). The 3 sections selected for quantitation contained dorsal hippocampus and were 1.6 ±0.05mm posterior to bregma.
Location of counting fields ― damage to the pyramidal cell layer was assessed by counting damaged neurons in the subiculum, CA1, CA3, CA3c and the hilus in the dorsal hippocampus. The neurons were assessed individually from the beginning of the subiculum to the end of the CA3c region using an Olympus Provis Ax 70 microscope at a magnification of 40x. […]
Criteria for differentiation of damaged versus non-damaged neurons - neurons were counted only if the majority of the nucleus was present in the section. […]

[3] = Chemically induced SSSE (cobalt/homocysteine model, homocysteine thiolactone injection); assay type: in vivo, Male Sprague-Dawley rats
Procedure: Male Sprague-Dawley rats were prepared surgically with cobalt powder on the left frontal cortical surface.
Recording and stimulation protocol: four epidural recording electrodes arranged in a square grid (5mm) over the cobalt lesion. EEG was monitored daily beginning 4-5 days following surgery. Status epilepticus was induced by i.p. injection of 5.5mmol/kg homocysteine thiolactone whenever focal motor behaviour and EEG seizures were observed.
Drug administration: SPM 927 was administered (10-100mg/kg) immediately following the second generalized tonic-clonic seizure (GTCS) occurring after homocysteine thiolactone injection.

[4] = Experiment 1b: 30 minutes stimulation
[5] = SPM 927 10-100mg/kg immediately following the second GTCS, 30 min following treatment

Structure (SMILES) | cumulative seizure duration over the 24h period [1] | time to the last seizure [1] | time after injection within which seizures stopped [1, 4] | Spike frequency (number of spikes/10 min) [1, 4] | efficacy on both parameters (cumulative seizure duration, time to the last seizure) when compared to DZP and PHT ([1]; Experiment 1a, SPM 927 50 mg/kg i.v. vs DZP 10 mg/kg and PHT 50 mg/kg (Fig. 1)) | recurrence of seizures over the next 24 hrs ([1]; Experiment 1b: 30 minutes stimulation, 50 mg/kg i.v. (Fig. 2A)) | time for which only a few single spikes were recorded ([1]; Experiment 1b: 30 minutes stimulation, 50 mg/kg i.v. (Fig. 2B)) | injured neurons in hippocampal fields ([2]; Experiment 1c: 30 minutes stimulation, SPM 927 50 mg/kg i.v., brains collected 72 hours after SSSE, subiculum, CA1, CA3, CA3c, hilus) | protection against neuronal injury, statistical significance ([2]; Experiment 1c, vs untreated rats, by hippocampal field) | latency to the first GTCS [3, 5] | mean number of GTCS [3, 5] | number of rats experiencing GTCS ([3]; SPM 927 10-100mg/kg immediately following the second GTCS, observed 30 min following treatment) | GTCS at the highest dose ([3]; highest dose of SPM 927 (range 10-100mg/kg), 30 min following treatment)
CN1C(=O)CN=C(c2ccccc2)c2cc(Cl)ccc21 [DZP, diazepam, reference compound] | potently and significantly reduced | potently and significantly reduced | – | – | – | – | – | – | – | – | – | – | –
O=C1NC(c2ccccc2)(c2ccccc2)C(=O)N1COP(=O)(O)O [Fosphenytoin, reference compound] | – | – | ≤ 15 min | significantly lower than in control animals but significantly higher than in SPM 927 treated rats | – | – | – | – | – | – | – | – | –
O=C1NC(=O)C(c2ccccc2)(c2ccccc2)N1 [PHT, phenytoin, reference compound] | potently and significantly reduced | potently and significantly reduced | – | – | – | – | – | – | – | – | – | – | –
COC[C@@H](NC(C)=O)C(=O)NCc1ccccc1 [SPM 927, (R)-2-acetamide-N-benzyl-3-methoxypropionamide] | potently and significantly reduced | potently and significantly reduced | ≤ 15 min | significantly decreased | somewhat more efficacious | did not recur | about 12 hrs | only an occasional injured neuron in any hippocampal field | statistically significant in the subiculum, CA1 and CA3 | prolonged | potently reduced | reduced in a dose-dependent fashion | completely abolished all GTCS
